Laboratory results as given in PubChem BioAssay (NCI).
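1) Cells in 96-well plates. 2) Compound, 48 h, 5 concentrations. 3) Linear interpolation between surrounding doses. 4) Unreached endpoint = highest concentration. At the GI50, growth is halved. TGI: concentration producing complete growth inhibition.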

Legend:
Experiment in all cases: DTP human tumour cell line panel, 48 h
[1] = tested on: OVCAR-3 ovarian
[2] = tested on: HCT-116 colon
[3] = tested on: OVCAR-5 ovarian
[4] = tested on: HT29 colon
[5] = tested on: HOP-92 NSCLC
[6] = tested on: SK-MEL-2 melanoma
[7] = tested on: RPMI-8226 leukemia
[8] = tested on: DU-145 prostate
[9] = tested on: HS 578T breast
[10] = tested on: SNB-19 CNS
[11] = tested on: MCF7 breast
[12] = tested on: SF-268 CNS
[13] = tested on: CAKI-1 renal
[14] = tested on: T-47D breast
[15] = tested on: LOX IMVI melanoma
[16] = tested on: SR leukemia
[17] = tested on: UACC-257 melanoma
[18] = tested on: UO-31 renal
[19] = tested on: SN12C renal
[20] = tested on: NCI-H226 lung
[21] = tested on: A498 renal
[22] = tested on: OVCAR-8 ovarian
[23] = tested on: UACC-62 melanoma
[24] = tested on: HOP-62 NSCLC
[25] = tested on: SF-539 CNS
[26] = tested on: CCRF-CEM leukemia
[27] = tested on: 786-0 renal
[28] = tested on: NCI-H460 lung
[29] = tested on: A549 NSCLC
[30] = tested on: COLO 205 colon
[31] = tested on: ACHN renal
[32] = tested on: HL-60(TB) leukemia
[33] = tested on: MDA-MB-231 breast
[34] = tested on: TK-10 renal
[35] = tested on: BT-549 breast
[36] = tested on: M14 melanoma
[37] = tested on: MALME-3M melanoma
[38] = tested on: U251 CNS
[39] = tested on: SW-620 colon
[40] = tested on: K-562 leukemia
[41] = tested on: SK-OV-3 ovarian
[42] = tested on: EKVX NSCLC
[43] = tested on: HCT-15 colon
[44] = tested on: SK-MEL-28 melanoma
[45] = tested on: MDA-MB-435
[46] = tested on: MOLT-4 leukemia
[47] = tested on: OVCAR-4 ovarian
[48] = tested on: SF-295 CNS
[49] = tested on: RXF 393 renal
[50] = tested on: IGROV1 ovarian
[51] = tested on: KM12 colon
[52] = tested on: NCI/ADR-RES ovarian
[53] = tested on: SNB-75 CNS
[54] = tested on: NCI-H522 lung
[55] = tested on: PC-3 prostate
[56] = tested on: SK-MEL-5 melanoma
[57] = tested on: HCC-2998 colon
[58] = tested on: NCI-H23 lung
[59] = tested on: MDA-N

CCOC(=O)c1cc(-c2ccccc2)[nH]c1N/N=C/c1c(Cl)cccc1Cl
GI50 [1]: 0.248 µM | TGI [1]: 1.04 µM | GI50 [2]: 0.729 µM | TGI [2]: > 36.7 µM | GI50 [3]: 4.99 µM | TGI [3]: 98 µM | GI50 [4]: 0.836 µM | TGI [4]: 16.3 µM | GI50 [5]: 2.02 µM | TGI [5]: 62.4 µM | GI50 [6]: 0.961 µM | TGI [6]: 87.5 µM | GI50 [7]: 2.11 µM | TGI [7]: 11.3 µM | GI50 [8]: 1.59 µM | TGI [8]: 11.7 µM | GI50 [9]: 0.538 µM | TGI [9]: 37.2 µM | GI50 [10]: 3.06 µM | TGI [10]: > 60.4 µM | GI50 [11]: 0.45 µM | TGI [11]: > 100 µM | GI50 [12]: 1.14 µM | TGI [12]: > 100 µM | GI50 [13]: 0.409 µM | TGI [13]: 31.1 µM | GI50 [14]: > 21.2 µM | TGI [14]: > 100 µM | GI50 [15]: 3.05 µM | TGI [15]: > 100 µM | GI50 [16]: 0.413 µM | TGI [16]: 10.2 µM | GI50 [17]: 49.2 µM | TGI [17]: > 100 µM | GI50 [18]: 1.34 µM | TGI [18]: > 100 µM | GI50 [19]: 4.3 µM | TGI [19]: > 100 µM | GI50 [20]: 1.5 µM | TGI [20]: 12.4 µM | GI50 [21]: 1.08 µM | TGI [21]: 43.7 µM | GI50 [22]: 4.77 µM | TGI [22]: > 100 µM | GI50 [23]: 2.03 µM | TGI [23]: > 100 µM | GI50 [24]: 2.37 µM | TGI [24]: 41.4 µM | GI50 [25]: 0.467 µM | TGI [25]: 3.73 µM | GI50 [26]: 2.3 µM | TGI [26]: 13.5 µM | GI50 [27]: 1.39 µM | TGI [27]: 49 µM | GI50 [28]: 0.909 µM | TGI [28]: > 61.7 µM | GI50 [29]: 1.92 µM | TGI [29]: > 100 µM | GI50 [30]: 2.71 µM | TGI [30]: 15.3 µM | GI50 [31]: 0.874 µM | TGI [31]: > 100 µM | GI50 [32]: 0.484 µM | TGI [32]: 5.13 µM | GI50 [33]: 3.7 µM | TGI [33]: 25.4 µM | GI50 [34]: 13.2 µM | TGI [34]: > 87.8 µM | GI50 [35]: 1.24 µM | TGI [35]: 18.9 µM | GI50 [36]: 1.71 µM | TGI [36]: 25.3 µM | GI50 [37]: 3.9 µM | TGI [37]: > 100 µM | GI50 [38]: 1.25 µM | TGI [38]: > 60.4 µM | GI50 [39]: 0.433 µM | TGI [39]: > 81.2 µM | GI50 [40]: 0.491 µM | TGI [40]: 13.7 µM | GI50 [41]: 2.4 µM | TGI [41]: > 100 µM | GI50 [42]: 5.96 µM | TGI [42]: > 100 µM | GI50 [43]: 0.671 µM | TGI [43]: > 100 µM | GI50 [44]: 3.35 µM | TGI [44]: > 75 µM | GI50 [45]: 0.272 µM | TGI [45]: 2.83 µM | GI50 [46]: 4.24 µM | TGI [46]: 24.3 µM | GI50 [47]: 13.4 µM | TGI [47]: > 100 µM | GI50 [48]: 0.339 µM | TGI [48]: 10.3 µM | GI50 [49]: 0.47 µM | TGI [49]: 9.51 µM | GI50 [50]: 0.752 µM | TGI [50]: 29.3 µM | GI50 [51]: 0.584 µM | TGI [51]: 24.3 µM | GI50 [52]: 0.509 µM | TGI [52]: 14.6 µM | GI50 [53]: 1.53 µM | TGI [53]: > 39.6 µM | GI50 [54]: 0.701 µM | TGI [54]: > 26.2 µM | GI50 [55]: 0.502 µM | TGI [55]: 37.5 µM | GI50 [56]: 0.706 µM | TGI [56]: 14.1 µM | GI50 [57]: 1.01 µM | TGI [57]: 7.48 µM | GI50 [58]: 1.33 µM | TGI [58]: 40.4 µM

N#CC1=C(N)OC(c2cccc([N+](=O)[O-])c2)C1(C#N)C#N (stereo not given)
TGI [2]: 28.5 µM | TGI [3]: 42.7 µM | TGI [4]: 37.2 µM | TGI [5]: 32.3 µM | TGI [6]: 40.4 µM | TGI [7]: 47 µM | TGI [8]: 31.2 µM | TGI [9]: > 100 µM | TGI [10]: 42.5 µM | TGI [11]: 48.5 µM | TGI [12]: 87 µM | TGI [13]: 26.6 µM | TGI [14]: 45.1 µM | TGI [15]: 28.4 µM | TGI [17]: 31.3 µM | TGI [18]: 32.8 µM | TGI [19]: > 100 µM | TGI [20]: 94.3 µM | TGI [21]: 36.7 µM | TGI [22]: 92.8 µM | TGI [23]: 81.6 µM | TGI [24]: 57 µM | TGI [25]: 42.5 µM | TGI [27]: 28.1 µM | TGI [29]: 99.6 µM | TGI [30]: 30.7 µM | TGI [31]: 33.2 µM | TGI [32]: > 100 µM | TGI [34]: 33.8 µM | TGI [36]: 63.6 µM | TGI [37]: 49.3 µM | TGI [38]: > 100 µM | TGI [40]: > 100 µM | TGI [41]: > 100 µM | TGI [42]: 64.6 µM | TGI [43]: 34.3 µM | TGI [59]: 62.6 µM | TGI [45]: 59.2 µM | TGI [48]: 73.2 µM | TGI [49]: 43.3 µM | TGI [50]: 35.4 µM | TGI [52]: > 100 µM | TGI [53]: 24.7 µM | TGI [54]: 28.8 µM | TGI [55]: 51.4 µM | TGI [56]: 31.8 µM | TGI [57]: 35.2 µM | TGI [58]: 39.3 µM

CCCCCCCN(CCCCCCC)CC(O)c1cc2ccccc2c2cc(Br)ccc12 (stereo not given)
TGI [1]: 36.4 µM | TGI [2]: > 100 µM | TGI [3]: > 100 µM | TGI [4]: > 100 µM | TGI [5]: 77 µM | TGI [6]: 69.9 µM | TGI [7]: > 100 µM | TGI [8]: 38.8 µM | TGI [10]: > 100 µM | TGI [11]: 48 µM | TGI [12]: 54.8 µM | TGI [13]: > 100 µM | TGI [14]: > 100 µM | TGI [15]: > 100 µM | TGI [16]: > 100 µM | TGI [17]: > 100 µM | TGI [18]: > 100 µM | TGI [19]: 46.7 µM | TGI [21]: > 100 µM | TGI [22]: > 100 µM | TGI [23]: > 100 µM | TGI [24]: > 100 µM | TGI [25]: > 100 µM | TGI [26]: > 100 µM | TGI [27]: > 100 µM | TGI [28]: > 100 µM | TGI [30]: > 100 µM | TGI [31]: > 100 µM | TGI [32]: > 100 µM | TGI [33]: > 100 µM | TGI [34]: > 100 µM | TGI [36]: 76.7 µM | TGI [37]: 40.7 µM | TGI [38]: 45.6 µM | TGI [39]: > 100 µM | TGI [40]: > 100 µM | TGI [41]: > 100 µM | TGI [42]: > 100 µM | TGI [43]: > 100 µM | TGI [59]: > 100 µM | TGI [44]: > 100 µM | TGI [45]: > 100 µM | TGI [46]: > 100 µM | TGI [47]: > 100 µM | TGI [50]: > 100 µM | TGI [52]: > 100 µM | TGI [53]: 93.9 µM | TGI [54]: > 100 µM | TGI [55]: > 100 µM | TGI [57]: 45.7 µM | TGI [58]: > 100 µM
